In paper PMC8217170, “Phase Ib dose-escalation study of the hypoxia-modifier Myo-inositol trispyrophosphate in patients with hepatopancreatobiliary tumors” (Nature Communications, 2021):
Several values for one entry are separate records, joined by “and”; a condition that tells them apart may be missing. Equal values may be shown once.

System: target lesions of PDAC, CRLM, CCA and HCC
Assay: Metabolic radiological response, FDG-PET-CT, EORTC criteria
Format: in vivo, human
Parameters: key to EORTC response after chemotherapy / EORTC response after ITPP / RespITPP_EORTC / RespChemo_EORTC: CMR = complete metabolic response; PMR = partial metabolic response; SMD = stable metabolic disease; PMD = progressive metabolic disease; Median change in metabolic activity, EORTC: concentration or dose not given beside the values; Lesion1_pre_TLG / Lesion1_post_TLG / Lesion1_chemo_TLG / Lesion2_pre_TLG / Lesion2_post_TLG / Lesion2_chemo_TLG / Lesion3_pre_TLG / Lesion3_post_TLG / Lesion3_chemo_TLG / Lesion4_pre_TLG / Lesion4_post_TLG / Lesion4_chemo_TLG / Lesion5_pre_TLG / Lesion5_post_TLG / Lesion5_chemo_TLG: unit not given here
Conditions: for EORTC response after chemotherapy: chemotherapy subsequent to ITPP
Procedure: Radiological assessment, consisting of abdominal MRI and FDG-PET-CT, was performed before ITPP administration and after the 3-week treatment course. Where possible, radiological re-evaluation was performed after 3–6 cycles of chemotherapy. Radiological responses were evaluated according to the RECIST 1.1 criteria[56] for MRI and EORTC criteria[57] for FDG-PET-CT imaging.
Then first calculate the sum of diameters (DM) and SUV-activities of radiological target lesions before ITPP (sum_pre), after ITPP (sum_post) and after subsequent chemotherapy (sum_chemo) for assessment of morphological RECIST1.1 (diameter) and metabolical EORTC (SUV activiy) responses.
Patient 1 (dropout after only 2 infusions and subsequent death due to rapid oncological progression) is excluded for radiological assessment due to no follow up imaging available.
In a second step, we calculate percent changes (PC) of diameter and SUV activity between before ITPP, after ITPP and after chemotherapy.

[1] = after chemotherapy subsequent to ITPP, 15 patients
[2] = individual patients, lesion 1, after subsequent chemotherapy
[3] = individual patients, lesion 1, post ITPP
[4] = individual patients, lesion 1, pre ITPP (baseline)
[5] = individual patients, lesion 2, after subsequent chemotherapy
[6] = individual patients, lesion 2, post ITPP
[7] = individual patients, lesion 2, pre ITPP (baseline)
[8] = individual patients, lesion 3, after subsequent chemotherapy
[9] = individual patients, lesion 3, post ITPP
[10] = individual patients, lesion 3, pre ITPP (baseline)
[11] = individual patients, lesion 4, after subsequent chemotherapy
[12] = individual patients, lesion 4, post ITPP
[13] = individual patients, lesion 4, pre ITPP (baseline)
[14] = individual patients, lesion 5, after subsequent chemotherapy

With O=P1(O)OC2C3OP(=O)(O)OP(=O)(O)OC3C3OP(=O)(O)OP(=O)(O)OC3C2OP(=O)(O)O1 (stereo not drawn) [ITPP, Myo-inositol trispyrophosphate] the “Median change in metabolic activity, EORTC” value (“Median change” for short) (CCA, following chemotherapy) was −32.39%, the “Median change” value (CCA, under ITPP monotherapy) was 17.97% and the “Median change” value (CRLM, following chemotherapy) was −14.64%. For the same compound, the “Median change” value (CRLM, under ITPP monotherapy) was 40.1%, the “Median change” value (HCC, following chemotherapy) was −8.47% and the “Median change” value (HCC, under ITPP monotherapy) was 15.54%. The “Share of patients with PMR” value (ITPP monotherapy) was 15%, the “Share of patients with SMD” value (ITPP monotherapy) was 41% and the “Median change” value (PDAC, following chemotherapy) was −52.19%. For the same compound, the “Median change” value (PDAC, under ITPP monotherapy) was −3.36%, the “Metabolic progressions (PMD), EORTC” value (after ITPP monotherapy) was 10 and the “Partial metabolic responses (PMR), EORTC” value (after ITPP monotherapy) was “four”. The “Stable metabolic diseases (SMD), EORTC” value (after ITPP monotherapy) was 11, the “Patients with PMD, EORTC” value [1] was 4 and the “Patients with PMR, EORTC” value [1] was 4. For the same compound, the “Patients with SMD, EORTC” value [1] was 7, the “Share of patients with PMR” value (after subsequent chemotherapy) was 27% and the “Share of patients with SMD” value (after subsequent chemotherapy) was 47%. For the same compound, the “EORTC response after ITPP” value (individual patients, cohort 1 (1866 mg/m2)) was “PMD and PMR and SMD”, the “EORTC response after chemotherapy” value (individual patients, cohort 1, 1866 mg/m2) was “PMR” and the “EORTC response after ITPP” value (individual patients, cohort 2 (3732 mg/m2)) was “SMD and PMR”. For the same compound, the “EORTC response after chemotherapy” value (individual patients, cohort 2, 3732 mg/m2) was “SMD and PMR”, the “EORTC response after ITPP” value (individual patients, cohort 3 (5600 mg/m2)) was “SMD and PMR” and the “EORTC response after chemotherapy” value (individual patients, cohort 3, 5600 mg/m2) was “SMD and PMD”. For the same compound, the “EORTC response after ITPP” value (individual patients, cohort 4 (7000 mg/m2)) was “PMD and SMD”, the “EORTC response after chemotherapy” value (individual patients, cohort 4, 7000 mg/m2) was “SMD” and the “EORTC response after ITPP” value (individual patients, cohort 5 (8750 mg/m2)) was “SMD and PMD”. The “EORTC response after chemotherapy” value (individual patients, cohort 5, 8750 mg/m2) was “PMD”, the “EORTC response after ITPP” value (individual patients, cohort 6 (10500 mg/m2)) was “PMD and SMD” and the “EORTC response after chemotherapy” value (individual patients, cohort 6, 10500 mg/m2) was “PMD and PMR and SMD”. The “EORTC response after ITPP” value (individual patients, cohort 7 (12390 mg/m2)) was “PMD and PMR”, the “EORTC response after chemotherapy” value (individual patients, cohort 7, 12390 mg/m2) was “SMD” and the “EORTC response after ITPP” value (individual patients, cohort 8 (14500 mg/m2)) was “PMD and SMD”. The “EORTC response after chemotherapy” value (individual patients, cohort 8, 14500 mg/m2) was “SMD”, the Lesion1_chemo_SUV [2] was 13.27 and 7.35 and 9.2 and 4.3 and 17.8 and 12.2 and 6.7 and 7.2 and 13.5 and 10.7 and 12.4 and 5.5 and 7.7 and 6.77 and the Lesion1_chemo_TLG [2] was 4678.1 and 60.2 and 158.8 and 9.1 and 331.5 and 23.3 and 13.1 and 256.8 and 487.3 and 17.2 and 3.8 and 24.1. The Lesion1_post_SUV [3] was 17.32 and 8.65 and 4.69 and 14.2 and 13.2 and 10.3 and 8.4 and 9.8 and 10.7 and 12.2 and 18.4 and 13.9 and 18.7 and 7.5 and 12 and 8.8 and 12.7 and 10.8 and 45.7 and 4.25 and 11.68 and 7.7 and 10.67 and 9.79, the Lesion1_post_TLG [3] was 7101.9 and 86.3 and 302.7 and 877.7 and 139.3 and 181.7 and 75 and 382.8 and 112.3 and 878.1 and 21.6 and 249.1 and 3441.2 and 63.2 and 62.4 and 4.1 and 71.4 and 2012.6 and the Lesion1_pre_SUV [4] was 14.29 and 12.03 and 5.25 and 9.2 and 10.8 and 9.1 and 7.6 and 8 and 8.3 and 7 and 14.1 and 9.3 and 12.4 and 9 and 13.2 and 11 and 12.04 and 21.6 and 5.32 and 11.06 and 6.36 and 11.68 and 11.22. For the same compound, the Lesion1_pre_TLG [4] was 4372.3 and 124.4 and 1117.7 and 865.6 and 104.9 and 699.3 and 37.5 and 197.8 and 43.3 and 531.1 and 1331.5 and 11.5 and 69 and 261.2 and 492.5 and 34.8 and 58.7 and 2.3 and 148.5 and 3074.9, the Lesion2_chemo_SUV [5] was 4.43 and 13.5 and 11.3 and 7.8 and 11.2 and 11 and 7 and 9.4 and 9.6 and 7.5 and 10.3 and 10.5 and 3.4 and 4.42 and 3.74 and the Lesion2_chemo_TLG [5] was 4.9 and 33.2 and 133.7 and 36.1 and 149.3 and 14.3 and 27.9 and 32.3 and 3.9 and 12.6 and 26.7. The Lesion2_post_SUV [6] was 4.64 and 3.03 and 11.4 and 7.9 and 6.6 and 12.3 and 14 and 13.6 and 9 and 9.6 and 8.6 and 8.1 and 8.4 and 10.3 and 40.7 and 6.42 and 6.24 and 10.36 and 3.73, the Lesion2_post_TLG [6] was 7.8 and 11.6 and 331.6 and 39.8 and 377.1 and 65.2 and 12.4 and 11.8 and 24.4 and 19.9 and 14.3 and 147.3 and 3.1 and the Lesion2_pre_SUV [7] was 3.34 and 10.83 and 7.9 and 7.2 and 3.9 and 7.6 and 11.6 and 13 and 5 and 7.8 and 5.5 and 3 and 10.2 and 13.3 and 20.8 and 5.84 and 5.77 and 11.3 and 4.77. The Lesion2_pre_TLG [7] was 3.9 and 7.1 and 175.5 and 11.2 and 263.8 and 27.2 and 31.1 and 3.3 and 23.7 and 55 and 21.4 and 24.9 and 86.2 and 13.2, the Lesion3_chemo_SUV [8] was 10.68 and 18.07 and 6.5 and 2.3 and 9.2 and 3.6 and 3.1 and 10.9 and 2.7 and 2.5 and 0 and the Lesion3_chemo_TLG [8] was 308 and 244.4 and 13.2 and 1 and 42.3 and 3.4 and 0.3 and 0. For the same compound, the Lesion3_post_SUV [9] was 13.38 and 8.25 and 7.8 and 2.7 and 13 and 9.9 and 13.6 and 3.9 and 32.3 and 10.6 and 2.97 and 3.4, the Lesion3_post_TLG [9] was 436.7 and 47.6 and 16.7 and 1.2 and 79.1 and 13.5 and 26.8 and 22.4 and 1.1 and 3.2 and the Lesion3_pre_SUV [10] was 12.41 and 13.89 and 10.1 and 2.3 and 3.6 and 5.8 and 13.7 and 2.6 and 10.84 and 19.9 and 10.9 and 2.7 and 7.35. For the same compound, the Lesion3_pre_TLG [10] was 261.7 and 28.6 and 21.7 and 1 and 13.5 and 3.4 and 72.1 and 179.3 and 22.6 and 0.1 and 3.9, the Lesion4_chemo_SUV [11] was 2.5 and 3.2 and 4.7 and 3.72 and the Lesion4_chemo_TLG [11] was 1.3 and 2.7 and 0 and 46.4. For the same compound, the Lesion4_post_SUV [12] was 3.5 and 16.1 and 6.1 and 1.6 and 14.37, the Lesion4_post_TLG [12] was 1.3 and 42.9 and 0 and 161.9 and the Lesion4_pre_SUV [13] was 7.6 and 11.5 and 4.2 and 8.83 and 3.9 and 13.22. For the same compound, the Lesion4_pre_TLG [13] was 17.4 and 33.9 and 16.4 and 1.1 and 84.7, the Lesion5_chemo_SUV [14] was 2 and 9.1 and 1.4 and 0 and the Lesion5_chemo_TLG [14] was 3.4 and 0.
